Measured values from PubChem BioAssay (NCI).
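How tested: cells in 96-well plates exposed to compound for 48 hours at five concentrations. Abbreviation: GI50, concentration required for 50% inhibition of growth. TGI is the concentration that stops growth completely.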

Experiments:
Experiment in all cases: NCI anticancer screen, dose series, 48 h
[1] = system: PC-3 prostate
[2] = system: NCI-H522 lung
[3] = system: DU-145 prostate
[4] = system: MDA-MB-231 breast
[5] = system: NCI/ADR-RES ovarian
[6] = system: SF-539 CNS
[7] = system: RXF-631 renal
[8] = system: LXFL 529 NSCLC
[9] = system: M19-MEL melanoma
[10] = system: DLD-1 colon
[11] = system: HOP-18 NSCLC
[12] = system: SK-MEL-5 melanoma
[13] = system: DMS 114 small cell lung
[14] = system: HS 578T breast
[15] = system: COLO 205 colon
[16] = system: HOP-92 NSCLC

Compound | GI50 [1] [µM] | TGI [1] [µM] | GI50 [2] [µM] | TGI [3] [µM] | GI50 [4] [µM] | TGI [4] [µM] | GI50 [5] [µM] | TGI [5] [µM] | TGI [6] [µM] | TGI [7] [µM] | TGI [8] [µM] | TGI [9] [µM] | TGI [2] [µM] | TGI [10] [µM] | TGI [11] [µM] | TGI [12] [µM] | TGI [13] [µM] | TGI [14] [µM] | TGI [15] [µM] | TGI [16] [µM]
O=C1c2ccccc2-c2c1c1ccccc1c(=O)n2CCCNCCNCCCn1c2c(c3ccccc3c1=O)C(=O)c1ccccc1-2 | 0.0929 | 1.84 | 0.151 | 1.07 | < 0.0381 | 0.437 | 0.358 | 1.75 | – | – | – | – | – | – | – | – | – | – | – | –
CCC12CCC[C@@]13C=C[C@H](O3)C(C)(C)C2=O (some centres undefined) | – | – | – | – | – | – | – | – | > 100 | > 100 | > 100 | > 100 | > 100 | > 100 | > 100 | > 100 | > 100 | – | – | –
CC1(C)N=C(/C(Cl)=[N+](/[O-])C(=O)c2ccc(Cl)cc2)C(C)(C)N1O | – | 37.5 | – | > 100 | – | 40 | – | 63.8 | 44 | – | – | – | – | – | – | 43.2 | – | > 100 | 34.2 | 31.4
Cc1ccc(NC(=O)CC/C(CC(=O)C(C)(C)C)=N/NC(=O)c2cc3ccccc3cc2O)cc1C | – | – | – | – | – | – | – | – | – | > 100 | > 100 | > 100 | – | > 100 | > 100 | – | > 100 | – | > 100 | > 100
